Columns and labels:
[1] = biological target: T1, Melanocortin receptor 4 (Homo sapiens, UniProt P32245); experiment: Displacement of [125I]NDP-MSH from human MC4R expressed in HEK293 cells; format: cell-based
[2] = tested on: Mus musculus; experiment: AUC in mouse at 5 mg/kg, iv; format: ADME, organism-based, Plasma; parameters: dose 5 mg/kg, route intravenous; conditions: in vivo
[3] = Ratio of drug level in brain against plasma in mouse after 4 hrs at 5 mg/kg, iv; format: ADME, organism-based; parameters: dose 5 mg/kg, route intravenous; conditions: read-out: BPR
[4] = Drug level in mouse brain after 4 hrs at 5 mg/kg, iv; format: ADME, organism-based; parameters: dose 5 mg/kg, route intravenous; conditions: read-out: Drug uptake
[5] = biological target: Melanocortin receptor 5 (Homo sapiens, UniProt P33032); experiment: Displacement of [125I]NDP-MSH from human MC5R expressed in HEK293 cells; format: cell-based
Sequence of Melanocortin receptor 5 (P33032 whole entry): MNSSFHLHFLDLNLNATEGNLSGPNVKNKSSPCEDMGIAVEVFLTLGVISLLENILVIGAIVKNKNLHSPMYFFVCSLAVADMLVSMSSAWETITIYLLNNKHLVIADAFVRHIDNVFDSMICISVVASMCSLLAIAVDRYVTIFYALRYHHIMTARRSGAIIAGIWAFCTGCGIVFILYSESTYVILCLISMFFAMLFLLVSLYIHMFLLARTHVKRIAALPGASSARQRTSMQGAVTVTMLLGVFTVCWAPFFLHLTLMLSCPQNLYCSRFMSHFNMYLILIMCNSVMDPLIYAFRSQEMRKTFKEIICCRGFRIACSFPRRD

[6] = tested on: Mus musculus; experiment: AUC in mouse at 10 mg/kg, po; format: ADME, organism-based, Plasma; parameters: dose 10 mg/kg, route oral; conditions: in vivo
[7] = Tmax in mouse at 10 mg/kg, po; format: ADME, organism-based; parameters: dose 10 mg/kg, route oral; conditions: in vivo
[8] = Half life in mouse at 5 mg/kg, iv; format: ADME, organism-based; parameters: dose 5 mg/kg, route intravenous; conditions: in vivo
[9] = Clearance in mouse at 5 mg/kg, iv; format: ADME, organism-based; parameters: dose 5 mg/kg, route intravenous; conditions: in vivo
[10] = biological target: Melanocyte-stimulating hormone receptor (Homo sapiens) (UniProt Q01726); experiment: Inhibition of [125I]NDP-MSH binding to human MC1R expressed in HEK293 cells; format: cell-based; conditions: concentration not given here
Sequence of Melanocyte-stimulating hormone receptor (Homo sapiens) (Q01726 whole entry, looked up): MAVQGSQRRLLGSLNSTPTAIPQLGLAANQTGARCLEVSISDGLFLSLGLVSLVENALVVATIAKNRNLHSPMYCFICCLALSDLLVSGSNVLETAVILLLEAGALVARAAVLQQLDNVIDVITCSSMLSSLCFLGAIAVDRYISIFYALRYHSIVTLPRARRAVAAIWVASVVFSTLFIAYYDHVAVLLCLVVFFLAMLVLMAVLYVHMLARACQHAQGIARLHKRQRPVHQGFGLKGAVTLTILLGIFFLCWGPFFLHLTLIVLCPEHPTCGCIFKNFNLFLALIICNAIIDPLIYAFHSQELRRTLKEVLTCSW

[11] = biological target: T1, Melanocortin receptor 4; experiment: Activity at MC4R assessed as inhibition of alpha-MSH-stimulated cAMP production; format: functional
[12] = biological target: Melanocortin receptor 3 (Homo sapiens, UniProt P41968); experiment: Displacement of [125I]NDP-MSH from human MC3R expressed in HEK293 cells; format: cell-based
Sequence of Melanocortin receptor 3 (P41968 whole entry): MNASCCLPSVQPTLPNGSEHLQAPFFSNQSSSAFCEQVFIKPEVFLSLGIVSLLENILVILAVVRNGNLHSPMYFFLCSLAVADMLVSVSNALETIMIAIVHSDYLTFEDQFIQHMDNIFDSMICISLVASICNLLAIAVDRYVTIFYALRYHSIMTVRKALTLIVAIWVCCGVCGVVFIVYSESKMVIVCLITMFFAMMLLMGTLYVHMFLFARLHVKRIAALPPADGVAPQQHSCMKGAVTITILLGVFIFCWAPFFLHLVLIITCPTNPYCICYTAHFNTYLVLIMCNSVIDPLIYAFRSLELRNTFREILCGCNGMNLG

[13] = Drug level in mouse brain after 1 hr at 5 mg/kg, iv; format: ADME, organism-based; parameters: dose 5 mg/kg, route intravenous; conditions: read-out: Drug uptake
[14] = Cmax in mouse at 10 mg/kg, po; format: ADME, organism-based; parameters: dose 10 mg/kg, route oral; conditions: in vivo
[15] = Bioavailability in mouse at 10 mg/kg, po; format: ADME, organism-based; conditions: in vivo
[16] = Ratio of drug level in brain against plasma in mouse after 1 hr at 5 mg/kg, iv; format: ADME, organism-based; parameters: dose 5 mg/kg, route intravenous; conditions: read-out: BPR
[17] = Volume of distribution in mouse at 5 mg/kg, iv; format: ADME, organism-based; parameters: dose 5 mg/kg, route intravenous; conditions: in vivo, read-out: Vdss
[18] = Lipophilicity, Log D of the compound; format: physicochemical; conditions: octanol/water
[19] = biological target: Melanocortin receptor (M4 and M5) (Homo sapiens) (UniProt P32245+P33032); experiment: Selectivity for MC4R over MC5R; format: protein assay
Sequence of Melanocortin receptor (M4 and M5) (Homo sapiens) (P32245 whole entry, looked up): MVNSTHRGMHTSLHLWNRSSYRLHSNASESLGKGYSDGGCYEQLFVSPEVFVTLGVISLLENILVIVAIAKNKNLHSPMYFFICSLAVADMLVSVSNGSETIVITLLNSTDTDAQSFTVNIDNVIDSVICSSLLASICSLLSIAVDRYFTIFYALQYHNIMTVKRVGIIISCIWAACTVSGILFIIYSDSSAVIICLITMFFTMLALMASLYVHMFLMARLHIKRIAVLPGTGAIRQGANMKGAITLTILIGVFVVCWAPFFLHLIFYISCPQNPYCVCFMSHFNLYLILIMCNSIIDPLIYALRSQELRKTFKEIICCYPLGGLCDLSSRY
Sequence of Melanocortin receptor (M4 and M5) (Homo sapiens) (P33032 whole entry, looked up): as the sequence (P33032 whole entry) above

T1 sequence (P32245 whole entry): as the sequence (P32245 whole entry, looked up) above

Row | SMILES | Ki [1] | further results
1 | CCC(C)[C@H](NS(C)(=O)=O)c1cc(C(F)(F)F)ccc1N1CCN(C(=O)CCc2ccc(Cl)cc2Cl)CC1 (stereo not given in full) | 1800 nM | 
2 | CCC(C)[C@H](NCCN)c1cc(C(F)(F)F)ccc1N1CCN(C(=O)CCc2ccc(Cl)cc2Cl)CC1 (stereo not given in full) | 56 nM | 
3 | CCCCC(N)c1cc(C(F)(F)F)ccc1N1CCN(C(=O)CCc2ccc(Cl)cc2Cl)CC1 (stereo not given) | 190 nM | 
4 | CCN[C@@H](CC(C)C)c1cc(C(F)(F)F)ccc1N1CCN(C(=O)CCc2ccc(Cl)cc2Cl)CC1 | 170 nM | 
5 | COCCN[C@@H](CC(C)C)c1cc(C(F)(F)F)ccc1N1CCN(C(=O)CCc2ccc(Cl)cc2Cl)CC1 | 620 nM | 
6 | COc1ccc(CCC(=O)N2CCN(c3ccc(C(F)(F)F)cc3[C@@H](N)CC(C)C)CC2)cc1OC | 4300 nM | 
7 | CCC(C)[C@H](NC(=O)OC)c1cc(C(F)(F)F)ccc1N1CCN(C(=O)CCc2ccc(Cl)cc2Cl)CC1 (stereo not given in full) | 2400 nM | 
8 | CCC(C)[C@H](NC[C@H]1CCCN1)c1cc(C(F)(F)F)ccc1N1CCN(C(=O)CCc2ccc(Cl)cc2Cl)CC1 (stereo not given in full) | 110 nM | 
9 | CC(C)C[C@H](N)c1cc(C(F)(F)F)ccc1N1CCN(C(=O)CCc2ccc(O)cc2)CC1 | > 10000 nM | 
10 | COc1ccc(OC)c(CCC(=O)N2CCN(c3ccc(C(F)(F)F)cc3[C@@H](N)CC(C)C)CC2)c1 | 2500 nM | 
11 | CC(C)C[C@H](N)c1cc(C(F)(F)F)ccc1N1CCN(C(=O)CCc2ccc(Cl)cc2Cl)CC1 | 74 nM | 
12 | CC(C)C[C@H](N)c1cc(F)ccc1N1CCN(C(=O)CCc2ccc(Cl)cc2Cl)CC1 | 94 nM | 
13 | CC[C@H](C)C(N)c1cc(C(F)(F)F)ccc1N1CCN(C(=O)CCc2ccc(Cl)cc2Cl)CC1 (stereo not given in full) | 75 nM | 
14 | CC(C)C[C@H](N)c1cc(C(F)(F)F)ccc1N1CCN(C(=O)CCc2ccccc2Cl)CC1 | 1700 nM | 
15 | CC(C)C[C@H](N)c1cc(C(F)(F)F)ccc1N1CCN(C(=O)CCc2ccccc2O)CC1 | 3300 nM | 
16 | NCCNC(COCc1ccccc1)c1cc(F)ccc1N1CCN(C(=O)CCc2ccc(Cl)cc2Cl)CC1 (stereo not given) | 400 nM | 
17 | COc1ccccc1CCC(=O)N1CCN(c2ccc(C(F)(F)F)cc2[C@@H](N)CC(C)C)CC1 | 1400 nM | 
18 | COc1cc(OC)c(OC)cc1CCC(=O)N1CCN(c2ccc(C(F)(F)F)cc2[C@@H](N)CC(C)C)CC1 | 6100 nM | 
19 | CC(C)C(N)c1cc(C(F)(F)F)ccc1N1CCN(C(=O)CCc2ccc(Cl)cc2Cl)CC1 (stereo not given) | 140 nM | 

Row | SMILES | Ki [1] | further results
20 | CN[C@@H](CC(C)C)c1cc(C(F)(F)F)ccc1N1CCN(C(=O)CCc2ccc(Cl)cc2Cl)CC1 | 1900 nM | 
21 | CCC(C)[C@H](NCC1CCCO1)c1cc(C(F)(F)F)ccc1N1CCN(C(=O)CCc2ccc(Cl)cc2Cl)CC1 (stereo not given in full) | 780 nM | 
22 | CC(N)c1cc(C(F)(F)F)ccc1N1CCN(C(=O)CCc2ccc(Cl)cc2Cl)CC1 (stereo not given) | 490 nM | 
23 | CC(C)C[C@H](N)c1cc(C(F)(F)F)ccc1N1CCN(C(=O)CCc2cccs2)CC1 | 4600 nM | 
24 | CCC(C)[C@H](NC(C)=O)c1cc(C(F)(F)F)ccc1N1CCN(C(=O)CCc2ccc(Cl)cc2Cl)CC1 (stereo not given in full) | 360 nM | 
25 | CCC(C)[C@H](N)c1cc(C(F)(F)F)ccc1N1CCN(C(=O)CCc2ccc(OC)cc2Cl)CC1 (stereo not given in full) | 57 nM | 
26 | CCC(C)[C@H](NC(=O)CN)c1cc(C(F)(F)F)ccc1N1CCN(C(=O)CCc2ccc(Cl)cc2Cl)CC1 (stereo not given in full) | 18 nM | 
27 | CCC(C)[C@H](NC(=O)CCN)c1cc(C(F)(F)F)ccc1N1CCN(C(=O)CCc2ccc(Cl)cc2Cl)CC1 (stereo not given in full) | 13 nM | AUC [2]: 23100 ng·h/mL; Kp at 4 h [3]: 0.03; concentration at 4 h [4]: 70 ng/g; Ki [5]: 170 nM; AUC [6]: 12100 ng·h/mL; Tmax [7]: 6 h; half-life [8]: 5.2 h; clearance [9]: 3.5 mL/min/kg; inhibition [10]: 17%; IC50 [11]: 1100 nM; Ki [12]: 800 nM; concentration at 1 h [13]: 62 ng/g; Cmax [14]: 1170 ng/mL; bioavailability [15]: 26.1%; Kp at 1 h [16]: 0.02; Vd [17]: 1.6 L/kg; logD [18]: 4
28 | CCC(C)[C@H](N)c1cc(C(F)(F)F)ccc1N1CCN(C(=O)CCc2ccc(OC)c(OC)c2Cl)CC1 (stereo not given in full) | 2500 nM | 
29 | CC(C)C[C@H](NC(=O)CCN)c1cc(C(F)(F)F)ccc1N1CCN(C(=O)CCc2ccc(Cl)cc2Cl)CC1 | 25 nM | 
30 | CC(C)C[C@H](N)c1cc(C(F)(F)F)ccc1N1CCN(C(=O)CCc2cn(C)c3ccccc23)CC1 | 3000 nM | 
31 | CCOCC(NC(=O)CCN)c1cc(F)ccc1N1CCN(C(=O)CCc2ccc(Cl)cc2Cl)CC1 (stereo not given) | 300 nM | 
32 | CC(C)C[C@H](N)c1cc(C(F)(F)F)ccc1N1CCN(C(=O)CCc2cccc(C(F)(F)F)c2)CC1 | 2200 nM | 
33 | CC(C)C[C@H](N)c1cc(C(F)(F)F)ccc1N1CCN(C(=O)CCc2c[nH]c3ccccc23)CC1 | 640 nM | 
34 | CC(C)C[C@H](N)c1cc(C(F)(F)F)ccc1N1CCN(C(=O)CCc2ccccc2F)CC1 | 2800 nM | 
35 | CCOCC(N)c1cc(F)ccc1N1CCN(C(=O)CCc2ccc(Cl)cc2Cl)CC1 (stereo not given) | 690 nM | 
36 | CC(C)C[C@H](N)c1cccc(F)c1N1CCN(C(=O)CCc2ccc(Cl)cc2Cl)CC1 | 110 nM | Ki [5]: 1200 nM; inhibition [10]: 21%; Ki [12]: 1400 nM
37 | CCC(C)[C@H](NC[C@H](C)N)c1cc(C(F)(F)F)ccc1N1CCN(C(=O)CCc2ccc(Cl)cc2Cl)CC1 (stereo not given in full) | 89 nM | 
38 | CC(C)C[C@H](N)c1cc(C(F)(F)F)ccc1N1CCN(C(=O)CCc2c(Cl)cccc2Cl)CC1 | 2600 nM | 

Row | SMILES | Ki [1] | further results
39 | CC(C)C[C@H](NC(=O)CN)c1cc(C(F)(F)F)ccc1N1CCN(C(=O)CCc2ccc(Cl)cc2Cl)CC1 | 19 nM | AUC [2]: 3070 ng·h/mL; Kp at 4 h [3]: 0.17; concentration at 4 h [4]: 33 ng/g; Ki [5]: 500 nM; AUC [6]: 687 ng·h/mL; Tmax [7]: 2 h; half-life [8]: 3.8 h; clearance [9]: 26.9 mL/min/kg; inhibition [10]: 18%; IC50 [11]: 1300 nM; Ki [12]: 1200 nM; concentration at 1 h [13]: 43 ng/g; Cmax [14]: 115 ng/mL; bioavailability [15]: 11.2%; Kp at 1 h [16]: 0.08; Selectivity ratio [19]: > 25; Vd [17]: 8.8 L/kg; logD [18]: 4.5
40 | COc1ccc(CCC(=O)N2CCN(c3ccc(C(F)(F)F)cc3[C@@H](N)CC(C)C)CC2)cc1 | 350 nM | 
41 | CCC(C)[C@H](NCCCN)c1cc(C(F)(F)F)ccc1N1CCN(C(=O)CCc2ccc(Cl)cc2Cl)CC1 (stereo not given in full) | 30 nM | 
42 | CCC(C)[C@H](NCCc1ccccc1)c1cc(C(F)(F)F)ccc1N1CCN(C(=O)CCc2ccc(Cl)cc2Cl)CC1 (stereo not given in full) | 2600 nM | 
43 | CCC(C)CN[C@H](c1cc(C(F)(F)F)ccc1N1CCN(C(=O)CCc2ccc(Cl)cc2Cl)CC1)C(C)CC (stereo not given in full) | 2800 nM | 
44 | COc1cccc(CCC(=O)N2CCN(c3ccc(C(F)(F)F)cc3[C@@H](N)CC(C)C)CC2)c1 | 4000 nM | 
45 | CCC(C)[C@H](NCc1ccccc1)c1cc(C(F)(F)F)ccc1N1CCN(C(=O)CCc2ccc(Cl)cc2Cl)CC1 (stereo not given in full) | 5900 nM | 
46 | Cc1[nH]c2ccccc2c1CCC(=O)N1CCN(c2ccc(C(F)(F)F)cc2[C@@H](N)CC(C)C)CC1 | 1600 nM | 
47 | NCCC(=O)NC(COCc1ccccc1)c1cc(F)ccc1N1CCN(C(=O)CCc2ccc(Cl)cc2Cl)CC1 (stereo not given) | 210 nM | 
48 | CCC(C)[C@H](NC[C@@H]1CCCN1)c1cc(C(F)(F)F)ccc1N1CCN(C(=O)CCc2ccc(Cl)cc2Cl)CC1 (stereo not given in full) | 64 nM | 
49 | CC(C)C[C@H](N)c1cc(C(F)(F)F)ccc1N1CCN(C(=O)CCc2csc3ccccc23)CC1 | 2300 nM | 
50 | CCC(C)[C@H](N)c1cc(C(F)(F)F)ccc1N1CCN(C(=O)CCc2ccc(Cl)cc2)CC1 (stereo not given in full) | 86 nM | 
51 | Cc1cccc(CCC(=O)N2CCN(c3ccc(C(F)(F)F)cc3[C@@H](N)CC(C)C)CC2)c1 | 2100 nM | 
52 | NC(COCc1ccccc1)c1cc(F)ccc1N1CCN(C(=O)CCc2ccc(Cl)cc2Cl)CC1 (stereo not given) | 1000 nM | 
53 | CC(C)C[C@H](N)c1cc(C(F)(F)F)ccc1N1CCN(C(=O)CCc2ccc(S(C)(=O)=O)cc2)CC1 | 4900 nM | 
54 | CC(C)C[C@H](N)c1cc(C(F)(F)F)ccc1N1CCN(C(=O)CCc2ccc3c(c2)OCO3)CC1 | 1500 nM | 
55 | CCN[C@H](c1cc(C(F)(F)F)ccc1N1CCN(C(=O)CCc2ccc(Cl)cc2Cl)CC1)C(C)CC (stereo not given in full) | 92 nM | 
56 | CCC(C)[C@H](NCc1ccccc1F)c1cc(C(F)(F)F)ccc1N1CCN(C(=O)CCc2ccc(Cl)cc2Cl)CC1 (stereo not given in full) | > 10000 nM | 
57 | CCC(C)C(N)c1cc(C(F)(F)F)ccc1N1CCN(C(=O)CCc2ccc(Cl)cc2Cl)CC1 (stereo not given) | 160 nM | 

Source: ChEMBL document CHEMBL1149513, “Arylpropionylpiperazines as antagonists of the human melanocortin-4 receptor” (Bioorg Med Chem Lett, 2006)
